Reference: patent US20100048640A1, “HYDRAZIDE COMPOUND AND HARMFUL ARTHROPOD-CONTROLLING AGENT CONTAINING THE SAME” (Sumitomo Chemical Company, Limited, priority 2007, published 2010)

Legend:
Type in all cases: in vivo
[1] = system: diamondback moths (Plutella xylostella); experiment: Test Example 1: cabbage foliar spray, diamondback moth larvae, controlling value; details: 120 h, flowable formulation, 20 mL/cup on cabbage, third-instar larvae, after 5 days; for pest or weed control at 500 ppm: 500 ppm active ingredient; for pest or weed control at 200 ppm: 200 ppm active ingredient
Procedure: Thus, test spray solutions were prepared. On the other hand, cabbage was planted in a polyethylene cup, and grown until the third true leaf or the fourth true leaf was developed. The test spray solution as described above was sprayed in an amount of 20 mL/cup on the cabbage. After the spray solution on the cabbage was dried, 10 third-instar larvae of diamondback moths (Plutella xylostella) were placed on the cabbage. After 5 days, the number of diamondback moths was counted, and the controlling value was calculated by the following equation. Controlling value(%)={1−(Cb×Tai)/(Cai×Tb))×100 wherein Cb: the number of worms in an untreated group before treatment; Cai: the number of worms in an untreated group on observation; Tb: the number of worms in a treated group before treatment; Tai: the number of worms in a treated group on observation.

[2] = system: cotton aphids (Aphis gossypii); experiment: Test Example 2: cucumber foliar spray, cotton aphids, controlling value; details: 144 h, flowable formulation, 20 mL/cup on cucumber, six days after spraying; for pest or weed control at 500 ppm: 500 ppm active ingredient; for pest or weed control at 200 ppm: 200 ppm active ingredient
Procedure: Thus, test spray solutions were prepared. On the other hand, cucumber was planted in a polyethylene cup, and was grown until the first true leaf was developed. About 30 cotton aphids (Aphis gossypii) were placed on the cucumber. One day after, the test spray solution as described above was sprayed in an amount of 20 mL/cup on the cucumber. Six days after spraying, the number of cotton aphids was counted, and a controlling value was calculated by the following equation. Controlling value(%)={1−(Cb×Tai)/(Cai×Tb))×100

[3] = system: common cutworm (Spodoptera litura); experiment: Test Example 3: cabbage foliar spray, common cutworm larvae, controlling value; details: 96 h, flowable formulation, 20 mL/cup on cabbage, fourth-instar larvae, after 4 days; for pest or weed control at 500 ppm: 500 ppm active ingredient; for pest or weed control at 200 ppm: 200 ppm active ingredient
Procedure: Thus, test spray solutions were prepared. On the other hand, cabbage was planted in a polyethylene cup, and grown until the third true leaf or the fourth true leaf was developed. The test spray solution as described above was sprayed in an amount of 20 mL/cup on the cabbage. After the spray solution sprayed on the cabbage was dried, 10 fourth-instar larvae of common cutworm (Spodoptera litura) were placed on the cabbage. After 4 days, the number of common cutworm surviving on the cabbage leaves was counted, and a controlling value was calculated by the following equation. Controlling value(%)={1−(Cb×Tai)/(Cai×Tb))×100

[4] = system: summer fruit tortrix (Adoxophyes orana fasciata); experiment: Test Example 4: apple seedling spray, summer fruit tortrix larvae, controlling value; details: 168 h, flowable formulation, 20 mL on apple seedling, first-instar larvae, seven days after spraying; for pest or weed control at 500 ppm: 500 ppm active ingredient; for pest or weed control at 200 ppm: 200 ppm active ingredient
Procedure: Thus, test spray solutions were prepared. On the other hand, 20 mL of the test spray solution as described above was sprayed to an apple seedling (28 day-old seeding; tree height: about 15 cm) planted in a plastic cup. The apple seedling was air-dried to such an extent that the spray solution sprayed on the apple seedling was dried, and about 30 first-instar larvae of summer fruit tortrix (Adoxophyes orana fasciata) were released. Seven days after spraying, the number of worms surviving on the apple seedling was counted, and a controlling value was calculated by the following equation. Controlling value(%)={1−(Cb×Tai)/(Cai×Tb))×100

[5] = system: yellow citrus thrips (Franklinella occidentalis); experiment: Test Example 5: cucumber leaf spray, yellow citrus thrips larvae, controlling value; details: 168 h, flowable formulation, 20 mL/cup on cucumber, cut first true leaf, 20 larvae, leaf area damaged, seven days after spraying; for pest or weed control at 500 ppm: 500 ppm active ingredient; for pest or weed control at 200 ppm: 200 ppm active ingredient
Procedure: Thus, test spray solutions were prepared. On the other hand, cucumber was planted in a polyethylene cup, and was grown until the first true leaf was developed. The test spray solution as described above was sprayed in an amount of 20 mL/cup on the cucumber. After the spray solution on the cucumber was dried, the first true leaf was cut and then placed on a filter paper (diameter: 70 mm) containing water in a polyethylene cup (diameter: 110 mm). On the cucumber leaf, 20 larvae of yellow citrus thrips ([…] occidentalis) were released, and the polyethylene cup was capped. Seven days after spraying, the percentage of leaf area damaged by the insect was examined and a controlling value was calculated by the following equation. Controlling value(%)={1-(Cb×Tai)/(Cai×Tb))×100

| Compound | pest or weed control at 500 ppm [1] [%] | pest or weed control at 500 ppm [2] [%] | pest or weed control at 500 ppm [3] [%] | pest or weed control at 500 ppm [4] [%] | pest or weed control at 500 ppm [5] [%] | pest or weed control at 200 ppm [1] [%] | pest or weed control at 200 ppm [2] [%] | pest or weed control at 200 ppm [3] [%] | pest or weed control at 200 ppm [4] [%] | pest or weed control at 200 ppm [5] [%] |
| --- | --- | --- | --- | --- | --- | --- | --- | --- | --- | --- |
| CCN(C(=O)c1cc(Br)cc(Br)c1NC(=O)c1cc(Br)nn1-c1ncccc1Cl)N(CC#N)C(=O)OC [1-1] | 100 | ≥ 90 | ≥ 80 | 100 | 100 | – | – | – | – | – |
| COC(=O)N(NC(=O)c1cc(Br)cc(Br)c1NC(=O)c1cc(Br)nn1-c1ncccc1Cl)c1ccccn1 [1-5] | 100 | ≥ 90 | ≥ 80 | 100 | 100 | – | – | – | – | – |
| COC(=O)N(NC(=O)c1cc(Cl)cc(C)c1NC(=O)c1cc(Br)nn1-c1ncccc1Cl)c1ccccn1 [1-6] | 100 | ≥ 90 | ≥ 80 | 100 | 100 | – | – | – | – | – |
| C=CCN(NC(=O)OC)C(=O)c1cc(Br)cc(Br)c1NC(=O)c1cc(Br)nn1-c1ncccc1Cl [1-7] | 100 | ≥ 90 | ≥ 80 | 100 | 100 | – | – | – | – | – |
| C=CCN(NC(=O)c1cc(Br)cc(Br)c1NC(=O)c1cc(Br)nn1-c1ncccc1Cl)C(=O)OC [1-8] | 100 | ≥ 90 | ≥ 80 | 100 | 100 | – | – | – | – | – |
| C=CCN(NC(=O)OC)C(=O)c1cc(Cl)cc(Cl)c1NC(=O)c1cc(Br)nn1-c1ncccc1Cl [1-9] | 100 | ≥ 90 | ≥ 80 | 100 | 100 | – | – | – | – | – |
| C=CCN(NC(=O)c1cc(Cl)cc(Cl)c1NC(=O)c1cc(Br)nn1-c1ncccc1Cl)C(=O)OC [1-10] | 100 | ≥ 90 | ≥ 80 | 100 | 100 | – | – | – | – | – |
| C=CCN(NC(=O)OC)C(=O)c1cc(Cl)cc(C)c1NC(=O)c1cc(Br)nn1-c1ncccc1Cl [1-11] | – | – | – | – | – | 100 | ≥ 90 | ≥ 80 | 100 | – |
| C=CCN(NC(=O)c1cc(Cl)cc(C)c1NC(=O)c1cc(Br)nn1-c1ncccc1Cl)C(=O)OC [1-12] | 100 | ≥ 90 | ≥ 80 | 100 | 100 | – | – | – | – | – |
| C#CCN(NC(=O)OC)C(=O)c1cc(Br)cc(Br)c1NC(=O)c1cc(Br)nn1-c1ncccc1Cl [1-31] | – | – | – | – | – | 100 | ≥ 90 | ≥ 80 | 100 | 100 |
| C#CCN(NC(=O)c1cc(Br)cc(Br)c1NC(=O)c1cc(Br)nn1-c1ncccc1Cl)C(=O)OC [1-32] | – | – | – | – | – | 100 | ≥ 90 | ≥ 80 | 100 | 100 |
| COC(=O)NN(Cc1ccccc1)C(=O)c1cc(Cl)cc(C)c1NC(=O)c1cc(Br)nn1-c1ncccc1Cl [1-57] | 100 | ≥ 90 | ≥ 80 | – | 100 | – | – | – | – | – |
| COC(=O)N(Cc1ccccc1)NC(=O)c1cc(Cl)cc(C)c1NC(=O)c1cc(Br)nn1-c1ncccc1Cl [1-58] | 100 | ≥ 90 | ≥ 80 | – | 100 | – | – | – | – | – |
| COC(=O)N(NC(=O)c1cc(Br)cc(Br)c1NC(=O)c1cc(Br)nn1-c1ncccc1Cl)C1CCCCC1 [1-59] | 100 | ≥ 90 | ≥ 80 | – | – | – | – | – | – | – |
| COC(=O)N(NC(=O)c1cc(Cl)cc(C)c1NC(=O)c1cc(Br)nn1-c1ncccc1Cl)C1CCCCC1 [1-60] | 100 | – | ≥ 80 | 100 | – | – | – | – | – | – |
| COC(=O)NN(CCO)C(=O)c1cc(Br)cc(Br)c1NC(=O)c1cc(Br)nn1-c1ncccc1Cl [1-61] | 100 | ≥ 90 | ≥ 80 | – | 100 | – | – | – | – | – |
| COC(=O)NN(CC=C(Cl)Cl)C(=O)c1cc(Br)cc(Br)c1NC(=O)c1cc(Br)nn1-c1ncccc1Cl [1-63] | 100 | ≥ 90 | ≥ 80 | 100 | 100 | – | – | – | – | – |
| COC(=O)N(CC=C(Cl)Cl)NC(=O)c1cc(Br)cc(Br)c1NC(=O)c1cc(Br)nn1-c1ncccc1Cl [1-64] | 100 | ≥ 90 | ≥ 80 | 100 | 100 | – | – | – | – | – |
